Results on 4 compounds are retold here after article PMC6882824, “Engineering of chimeric peptides as antagonists for the G protein-coupled receptor, RXFP4” (Scientific Reports, 2019).

SMILES strings stand for the structures. Like-named read-outs stand apart in the source and are kept apart here. Bridge positions count the residues as written; N and C are the ends. Peptide text beside a SMILES is read from it. I, II: the chains in the order shown.

Assay [1] has as its target T1, RXFP3 (Homo sapiens, UniProt Q9NSD7).
T1 construct: expressed in transfected cells; host or cells: CHO-K1 (ATCC), stably transfected
T1 sequence (Q9NSD7 1-469): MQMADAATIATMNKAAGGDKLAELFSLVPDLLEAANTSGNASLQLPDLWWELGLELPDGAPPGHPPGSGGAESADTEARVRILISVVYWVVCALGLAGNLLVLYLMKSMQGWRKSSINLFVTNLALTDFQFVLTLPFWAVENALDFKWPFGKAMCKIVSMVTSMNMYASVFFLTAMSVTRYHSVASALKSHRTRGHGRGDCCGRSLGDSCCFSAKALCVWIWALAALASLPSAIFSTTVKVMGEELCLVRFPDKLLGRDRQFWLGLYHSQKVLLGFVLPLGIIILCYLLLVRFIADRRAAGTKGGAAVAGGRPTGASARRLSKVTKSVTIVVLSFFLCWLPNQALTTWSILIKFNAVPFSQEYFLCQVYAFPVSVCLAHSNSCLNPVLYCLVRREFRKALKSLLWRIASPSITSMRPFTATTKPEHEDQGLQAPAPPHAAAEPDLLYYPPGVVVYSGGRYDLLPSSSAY
The assay can be described thus: Competition binding in CHO-K1-RXFP3 cells (Eu-H3B1-22R). The note with it: CHO-K1 cells stably transfected with RXFP3, competition with 5 nM Eu-H3B1-22R. Here is the method: (§1) Chinese hamster ovary CHO-K1 cells (sourced from American Type Culture Collection (ATCC), Maryland, USA) stably transfected with RXFP3[33] or RXFP4[9] were plated out onto precoated poly-L-lysine 96-well view plates at a density of 50 000 cells per well. Medium was aspirated off and the cells were washed with phosphate-buffered saline (PBS) before competition binding assays were performed with 5 nM Eu-H3B1–22R[34] (RXFP3 ligand) or 5 nM Eu-DTPA-mINSL5[9] (RXFP4 ligand) as previously described. Competition binding curves were performed in triplicate and each experiment was performed independently at least three times. Fluorescent measurements were carried out on a BMG POLARstar plate reader (BMG Labtech, Melbourne, Australia. Pooled data are presented as mean ± S.E of specific binding and are fitted using one-site binding curve in GraphPad Prism version 8 (GraphPad Inc., San Diego, USA). Statistical analyses were conducted using one-way analysis of variance with uncorrected Fisher’s least significant difference (LSD) post-hoc analysis in GraphPad Prism version 8.

In assay [2] the target is T2, RXFP4 (Homo sapiens, UniProt Q8TDU9). The assay can be described thus: cAMP agonist assay (inhibition of forskolin-induced cAMP, pCRE β-galactosidase reporter) in CHO-K1-RXFP4 cells. The format is cell-based. Set-up: expressed in transfected cells; host or cells: CHO-K1 (ATCC), stably transfected. The settings on record: for RXFP4 Activity pEC50: CHO-K1-RXFP4 cells, inhibition of 1 µM forskolin-induced cAMP, 6 hours, mean ± SEM, n in cell. Here is the method: (§2) The peptides were tested for their ability to inhibit forskolin induced cAMP activity in CHO-K1-RXFP3 or CHO-K1-RXFP4 cells transfected with a pCRE (cAMP Response Element) β-galactosidase reporter plasmid as previously described[9],[34]. For agonist assays cells were stimulated with forskolin (5 µM for RXFP3, 1 µM for RXFP4) plus or minus increasing concentrations of each peptide for 6 hours. For antagonist assays cells were stimulated with forskolin as in agonist assays plus increasing concentrations of each peptide for 10 minutes followed by stimulation with agonist at an ~EC80 concentration for a further 6 hours (10 nM Analogue 2 for RXFP3 and 16.6 nM Analogue 13 for RXFP4). Each peptide was tested in triplicate and each experiment was performed independently at least three times. Agonist data was expressed as the % Forskolin activity whereby 100% was defined as Forskolin alone and 0% as maximum agonist stimulation (1 µM Analogue 2 for RXFP3 and 1 µM Analogue 13 for RXFP4). […] Data were analysed and plotted using GraphPad PRISM 8 and are expressed as the mean ± SEM of the pooled data. Statistical analysis was conducted using one-way ANOVA with Uncorrected Fisher’s LSD post-hoc analysis in GraphPad Prism version 8.
T2 sequence (Q8TDU9 whole entry): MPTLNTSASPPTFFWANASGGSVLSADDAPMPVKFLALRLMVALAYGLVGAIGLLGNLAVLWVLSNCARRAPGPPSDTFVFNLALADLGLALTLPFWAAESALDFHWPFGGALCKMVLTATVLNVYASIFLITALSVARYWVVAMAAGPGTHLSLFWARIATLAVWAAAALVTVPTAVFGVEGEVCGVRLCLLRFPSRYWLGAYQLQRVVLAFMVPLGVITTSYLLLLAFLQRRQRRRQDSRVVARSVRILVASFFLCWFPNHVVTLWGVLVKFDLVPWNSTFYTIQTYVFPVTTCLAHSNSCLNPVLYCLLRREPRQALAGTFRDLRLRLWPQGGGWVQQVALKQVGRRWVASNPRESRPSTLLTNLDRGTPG

For assay [3], the target named is T1, RXFP3. As to the kind of experiment: cAMP agonist assay (inhibition of forskolin-induced cAMP, pCRE β-galactosidase reporter) in CHO-K1-RXFP3 cells. The format is cell-based. The note with it: SEM; read-out: RXFP3 Activity pEC50 (converted). Here is the method:
as §2

Assay [4] concerns the target T2, RXFP4. The assay can be described thus: Competition binding in CHO-K1-RXFP4 cells (Eu-DTPA-mINSL5). Set-up: expressed in transfected cells; host or cells: CHO-K1 (ATCC), stably transfected. The note with it: CHO-K1 cells stably transfected with RXFP4, competition with 5 nM Eu-DTPA-mINSL5. Here is the method: as §1
The target of assay [5] is T2, RXFP4. The assay can be described thus: cAMP antagonist assay against 16.6 nM analogue 13 in CHO-K1-RXFP4 cells. The settings on record: SEM; read-out: RXFP4 Emax (antagonist efficacy). Set-up: expressed in transfected cells; host or cells: CHO-K1 (ATCC), stably transfected. In kind it is cell-based. Here is the method: as §2
Assay [6] has as its target T1, RXFP3. The assay can be described thus: cAMP antagonist assay against 10 nM analogue 2 in CHO-K1-RXFP3 cells. The format is cell-based. The settings on record: SEM; read-out: RXFP3 Emax (antagonist efficacy). Here is the method: as §2

For `CC[C@H](C)[C@@H]1NC(=O)[C@H](Cc2ccccc2)NC(=O)[C@H](CCC(=O)O)NC(=O)[C@H](CCCNC(=N)N)NC(=O)CNC(=O)[C@@H](NC(=O)[C@H](CC(C)C)NC(=O)[C@H](CCCNC(=N)N)NC(=O)[C@@H](NC(=O)CNC(=O)[C@H](Cc2ccc(O)cc2)NC(=O)[C@@H]2CCCN2C(=O)[C@H](C)NC(=O)[C@H](C)NC(=O)[C@@H](N)CCCNC(=N)N)C(C)C)CSSC[C@H](N)C(=O)N[C@@H](CCCCN)C(=O)N[C@@H](Cc2c[nH]c3ccccc23)C(=O)NCC(=O)N[C@@H](CO)C(=O)N[C@@H](C)C(=O)N[C@@H](CCCCN)C(=O)N[C@@H](CO)C(=O)N[C@@H](CCC(=O)O)C(=O)N[C@@H]([C@@H](C)CC)C(=O)N[C@@H](CO)C(=O)N[C@@H](CO)C(=O)N[C@@H](CC(C)C)C(=O)N[C@H](C(=O)O)CSSC[C@@H](C(=O)NCC(=O)NCC(=O)N[C@@H](CO)C(=O)N[C@@H](CCCNC(=N)N)C(=O)N[C@@H](Cc2c[nH]c3ccccc23)C(=O)O)NC(=O)[C@H]([C@@H](C)O)NC(=O)[C@H](Cc2ccccc2)NC(=O)[C@H]([C@@H](C)CC)NC(=O)[C@H](C(C)C)NC(=O)[C@H](C)NC(=O)[C@H](CCCNC(=N)N)NC1=O` [Analogue 2, reference compound], the Ki on RXFP3 [1] (read-out: RXFP3 Binding Ki) amounted to 19.1 nM; at RXFP4 [4] (read-out: RXFP4 Binding Ki) it was 79.4 nM. Further, the EC50 on RXFP4 [2] was 19.9 nM; on RXFP3 [3], 3.72 nM.

For the compound `CC[C@H](C)[C@@H]1NC(=O)[C@H](Cc2ccccc2)NC(=O)[C@H](CCC(=O)O)NC(=O)[C@H](CCCNC(=N)N)NC(=O)CNC(=O)[C@@H](NC(=O)[C@H](CC(C)C)NC(=O)[C@H](CCCNC(=N)N)NC(=O)[C@@H](NC(=O)CNC(=O)[C@H](Cc2ccc(O)cc2)NC(=O)[C@@H]2CCCN2C(=O)[C@H](C)NC(=O)[C@H](C)NC(=O)[C@@H](N)CCCNC(=N)N)C(C)C)CSSC[C@H](N)C(=O)N[C@@H]([C@@H](C)O)C(=O)N[C@@H](CC(=O)O)C(=O)NCC(=O)N[C@@H](C)C(=O)N[C@@H](CO)C(=O)N[C@@H](CCSC)C(=O)N[C@@H](CCCCN)C(=O)N[C@@H](CC(=O)O)C(=O)N[C@@H](CC(C)C)C(=O)N[C@@H](CO)C(=O)N[C@@H](C)C(=O)N[C@@H](CC(C)C)C(=O)N[C@H](C(=O)O)CSSC[C@@H](C(=O)N[C@@H](CCCNC(=N)N)C(=O)O)NC(=O)[C@H]([C@@H](C)CC)NC(=O)[C@H](Cc2ccccc2)NC(=O)[C@H]([C@@H](C)CC)NC(=O)[C@H](C(C)C)NC(=O)[C@H](C)NC(=O)[C@H](CCCNC(=N)N)NC1=O` [Analogue 16] (I: H-RAAPYGVRLCGREFIRAVIFICR-OH / II: H-CTDGASMKDLSALC-OH; disulfide I:10-II:1, I:22-II:14; N-terminus assumed), the Emax on RXFP4 [5] stood at 2.1 ± 4.7%; at RXFP3 [6], 55.8 ± 3.4%. For the same compound, on RXFP4 [2], the “RXFP4 Activity pEC50” value is recorded as “Weak partial agonist (4)”.

As for `CC[C@H](C)[C@@H]1NC(=O)[C@H](Cc2ccccc2)NC(=O)[C@H]([C@@H](C)CC)NC(=O)[C@H](C(C)C)NC(=O)[C@H]([C@@H](C)O)NC(=O)[C@H](CCCNC(=N)N)NC(=O)[C@H]([C@@H](C)CC)NC(=O)[C@H](Cc2ccccc2)NC(=O)[C@H](CCC(=O)O)NC(=O)[C@H](CC(C)C)NC(=O)CNC(=O)[C@@H](NC(=O)[C@H](CC(C)C)NC(=O)[C@H](CCCNC(=N)N)NC(=O)[C@@H](NC(=O)CNC(=O)[C@H](CCC(=O)O)NC(=O)[C@H](CCCCN)NC(=O)[C@H](C)NC(=O)[C@H](C)NC(=O)[C@@H](N)CCCNC(=N)N)C(C)C)CSSC[C@H](N)C(=O)N[C@@H]([C@@H](C)O)C(=O)N[C@@H](CC(=O)O)C(=O)NCC(=O)N[C@@H](C)C(=O)N[C@@H](CO)C(=O)N[C@@H](CCSC)C(=O)N[C@@H](CCCCN)C(=O)N[C@@H](CC(=O)O)C(=O)N[C@@H](CC(C)C)C(=O)N[C@@H](CO)C(=O)N[C@@H](C)C(=O)N[C@@H](CC(C)C)C(=O)N[C@H](C(=O)O)CSSC[C@@H](C(=O)N[C@@H](CCCNC(=N)N)C(=O)O)NC1=O` [Analogue 20] (I: H-RAAKEGVRLCGLEFIRTVIFICR-OH / II: H-CTDGASMKDLSALC-OH; disulfide I:10-II:1, I:22-II:14; N-terminus assumed), the Emax came to 8.1 ± 9.5% at RXFP4 [5] and 19.9 ± 2.3% at RXFP3 [6]. Further, the “RXFP4 Activity pEC50” value on RXFP4 [2] is on record as “Weak partial agonist (4)”.

For `CC[C@H](C)[C@@H]1NC(=O)[C@H](Cc2ccccc2)NC(=O)[C@H](CCC(=O)O)NC(=O)[C@H](CCCNC(=N)N)NC(=O)CNC(=O)[C@@H](NC(=O)[C@H](CC(C)C)NC(=O)[C@H](CCCNC(=N)N)NC(=O)[C@@H](NC(=O)CNC(=O)[C@H](Cc2ccc(O)cc2)NC(=O)[C@@H]2CCCN2C(=O)[C@H](C)NC(=O)[C@H](C)NC(=O)[C@@H](N)CCCNC(=N)N)C(C)C)CSSC[C@@H]2NC(=O)[C@@H](NC(=O)[C@H](CO)NC(=O)[C@H](CO)NC(=O)[C@H](CO)NC(=O)[C@H](CC(C)C)NC(=O)CNC(=O)[C@H](C)NC(=O)[C@H](CC(C)C)NC(=O)[C@@H](NC(=O)[C@@H](N)CC(=O)O)C(C)C)CSSC[C@H](NC(=O)CNC(=O)[C@H](Cc3c[nH]c4ccccc34)NC(=O)[C@H](CCCCN)NC2=O)C(=O)N[C@@H](CO)C(=O)N[C@@H](CCCCN)C(=O)N[C@@H](CO)C(=O)N[C@@H](CCC(=O)O)C(=O)N[C@@H]([C@@H](C)CC)C(=O)N[C@@H](CO)C(=O)N[C@@H](CO)C(=O)N[C@@H](CC(C)C)C(=O)N[C@H](C(=O)O)CSSC[C@@H](C(=O)NCC(=O)NCC(=O)N[C@@H](CO)C(=O)N[C@@H](CCCNC(=N)N)C(=O)N[C@@H](Cc2c[nH]c3ccccc23)C(=O)O)NC(=O)[C@H]([C@@H](C)O)NC(=O)[C@H](Cc2ccccc2)NC(=O)[C@H]([C@@H](C)CC)NC(=O)[C@H](C(C)C)NC(=O)[C@H](C)NC(=O)[C@H](CCCNC(=N)N)NC1=O` [Relaxin 3 (R3), reference compound], the Ki at RXFP3 [1] (mean ± SEM, n in cell, SEM, read-out: RXFP3 Binding pKi (converted)) was 22.9 nM; on RXFP4 [4] (mean ± SEM, n in cell, SEM, read-out: RXFP4 Binding pKi (converted)), 2.29 nM. On RXFP3 [3], the EC50 is 0.832 nM.

The term Emax denotes the maximal effect, on the per cent scale that the assay sets.
